The values that follow come from ChEMBL document CHEMBL5523667, “Blood-stage antimalarial activity, favourable metabolic stability and in vivo toxicity of novel piperazine linked 7-chloroquinoline-triazole conjugates” (Eur J Med Chem, 2024).

SMILES strings stand for the structures. Activity calls are given as the source filed them. The rule behind the calls is not given here.

Series [1] is described as follows: Selectivity index, ratio of IC50 for cytotoxicity against CHO cells to IC50 for antimalarial activity against chloroquine-sensitive Plasmodium falciparum NF54. In kind it is toxicity, cell-based. Particulars: hamster, CHO cells versus Plasmodium falciparum NF54; read-out: Ratio IC50.
Series [2] has as its system Plasmodium falciparum. Nature of the series: Antimalarial activity against ring stage chloroquine-sensitive Plasmodium falciparum 3D7 assessed as inhibition of parasite growth by SYBR green I dye based assay. In kind it is functional, organism-based.
Series [3] concerns Plasmodium falciparum. Nature of the series: Antimalarial activity against ring stage chloroquine-resistant Plasmodium falciparum RKL9 assessed as inhibition of parasite growth by SYBR green I dye based assay. Type of series: functional, organism-based.
In series [4] the target is T1, Falcipain 2 (Plasmodium falciparum, UniProt Q9N6S8).
T1 sequence (Q9N6S8 whole entry): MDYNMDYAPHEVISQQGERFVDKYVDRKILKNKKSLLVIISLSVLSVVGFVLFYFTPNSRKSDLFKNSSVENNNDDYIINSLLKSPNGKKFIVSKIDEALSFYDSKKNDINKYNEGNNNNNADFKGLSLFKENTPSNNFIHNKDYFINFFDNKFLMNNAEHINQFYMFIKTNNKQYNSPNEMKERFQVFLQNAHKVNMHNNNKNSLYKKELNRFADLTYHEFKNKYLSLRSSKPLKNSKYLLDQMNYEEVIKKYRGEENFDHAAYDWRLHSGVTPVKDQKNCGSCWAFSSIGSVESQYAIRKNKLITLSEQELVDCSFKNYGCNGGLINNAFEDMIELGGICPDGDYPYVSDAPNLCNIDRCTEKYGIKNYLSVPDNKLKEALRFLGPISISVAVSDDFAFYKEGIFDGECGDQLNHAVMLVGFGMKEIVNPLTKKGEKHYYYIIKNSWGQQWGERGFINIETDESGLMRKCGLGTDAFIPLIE
Nature of the series: Binding affinity to N-terminal 6His-tagged recombinant Plasmodium falciparum FP2 expressed in Escherichia coli M15 assessed as dissociation constant by surface plasmon resonance analysis. In general terms: SPR reads the build-up and loss of mass on a sensor chip optically.

Series [5] has as its target T2, Falcipain-3 (Plasmodium falciparum 3D7) (UniProt Q8IIL0).
T2 sequence (whole entry): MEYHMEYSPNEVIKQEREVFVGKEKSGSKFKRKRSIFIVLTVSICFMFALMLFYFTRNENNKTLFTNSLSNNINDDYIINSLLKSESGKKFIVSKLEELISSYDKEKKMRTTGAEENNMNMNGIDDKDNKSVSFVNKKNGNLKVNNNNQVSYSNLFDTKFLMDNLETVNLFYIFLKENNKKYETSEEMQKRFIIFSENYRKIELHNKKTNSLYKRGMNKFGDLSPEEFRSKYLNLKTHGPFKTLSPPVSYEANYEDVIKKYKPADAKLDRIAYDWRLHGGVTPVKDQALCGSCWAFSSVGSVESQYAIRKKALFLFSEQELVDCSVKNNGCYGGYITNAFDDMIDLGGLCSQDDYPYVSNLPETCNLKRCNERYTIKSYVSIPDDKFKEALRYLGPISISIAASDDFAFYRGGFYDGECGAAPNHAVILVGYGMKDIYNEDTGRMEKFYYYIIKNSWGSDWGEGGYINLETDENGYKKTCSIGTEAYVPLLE
Nature of the series: Binding affinity to N-terminal 6His-tagged recombinant Plasmodium falciparum FP3 expressed in Escherichia coli M15 assessed as dissociation rate constant (Koff) by surface plasmon resonance analysis.

Series [6] addresses T1, Falcipain 2. Nature of the series: Inhibition of N-terminal 6His-tagged recombinant Plasmodium falciparum FP2 expressed in Escherichia coli M15 using Z-Phe-Arg-AMC as substrate measured after 30 mins by microplate reader analysis.
In series [7] the test system is Plasmodium falciparum. Nature of the series: Antimalarial activity against synchronized ring stage Plasmodium falciparum assessed as accumulation of free heme at 1 to 4 uM incubated for 20 hrs by absorbance based analysis. Type of series: functional, organism-based. Particulars: dose 1-4 µM.
Series [8] concerns Plasmodium falciparum. Nature of the series: Antimalarial activity against synchronized-ring stage chloroquine-sensitive Plasmodium falciparum 3D7 assessed as reduction in parasitemia measured upto 60 hrs post-treatment by Giemsa staining based light microscopic analysis (reference value: 3.9 %). In kind it is functional. Details: scale not given: the % may be the effect or the level left.

In series [9] the test system is Plasmodium falciparum. Nature of the series: Antimalarial activity against synchronized-ring stage chloroquine-sensitive Plasmodium falciparum 3D7 assessed as halt in parasite multiplication by measuring appearance of pyknotic bodies measured after 36 hrs by Giemsa staining based light microscopic analysis. In kind it is functional, organism-based.
Series [10] concerns Plasmodium falciparum. Nature of the series: Synergistic antimalarial activity against chloroquine-sensitive Plasmodium falciparum 3D7 assessed as fractional inhibitory concentration incubated for 60 hrs in presence of chloroquine by SYBR Green staining based analysis. Type of series: functional.
The subject of series [11] is Plasmodium berghei. Nature of the series: Antimalarial activity against Plasmodium berghei ANKA infected in BALB/c mouse assessed as reduction in gametocyte development at 50 to 100 mg/kg, ip preadministered with phenylhydrazine for 3 days followed by compound administration and measured after 4 days by Giemsa staining based light microscopic analysis. The settings on record: dose 50-100 mg/kg, time 4.0 day. Type of series: functional, organism-based.

The subject of series [12] is Plasmodium berghei. Nature of the series: Antimalarial activity against Plasmodium berghei ANKA infected in BALB/c mouse assessed as clearance of gametocytes at 50 to 100 mg/kg, ip p preadministered with phenylhydrazine for 3 days followed by compound administration and measured after 5 days by Giemsa staining based light microscopic analysis relative to control. Type of series: functional, organism-based. Particulars: dose 50-100 mg/kg, time 5.0 day.

Series [13] in a line: Metabolic stability in human liver S9 fraction assessed as intrinsic clearance at 2 uM measured 90 mins by LC-MS/MS analysis. Type of series: ADME, subcellular. The settings on record: read-out: CLH.
Series [14] is described as follows: Toxicity in mouse assessed as total distance travelled at 100 mg/kg measured over 5 mins by open field arena test (reference value: 12.45 +/- 1.48 meter). In kind it is organism-based. Particulars: in vivo.
A short description of series [15]: Toxicity in mouse assessed as total distance travelled at 200 mg/kg measured over 5 mins by open field arena test (reference value: 12.45 +/- 1.48 meter). In kind it is organism-based. The settings on record: in vivo.
A short description of series [16]: Toxicity in mouse assessed as frequency of rearing activity at 100 mg/kg measured over 5 mins by open field arena test (reference value: 18.14 +/- 2.6 sec). Particulars: in vivo. Type of series: organism-based.
Series [17] can be described thus: Toxicity in mouse assessed as latency time to the central area at 100 mg/kg by open field test (reference value: 106.48 +/- 43.19 sec). In kind it is organism-based. The settings on record: in vivo, 43 s.
A short description of series [18]: Toxicity in mouse assessed as latency time to the central area at 200 mg/kg by open field test (reference value: 106.48 +/- 43.19 sec). The settings on record: in vivo, 43 s. In kind it is organism-based.
Series [19] can be described thus: Toxicity in mouse assessed as impairment of short-term memory at 100 mg/kg by novel object recognition test (reference value: 11.87 +/- 3.82 ). Type of series: organism-based. Particulars: in vivo.
Series [20] in a line: Toxicity in mouse assessed as impairment of short-term memory at 200 mg/kg by novel object recognition test (reference value: 11.87 +/- 3.82 ). In kind it is organism-based. Particulars: in vivo.
A short description of series [21]: Toxicity in mouse assessed as effect on food intake at 100 to 200 mg/kg measured for 7 days. Type of series: organism-based. The settings on record: in vivo, 168 h, dose 100-200 mg/kg, time 7 day.
A short description of series [22]: Toxicity in mouse assessed as cell death in spleen at 100 to 200 mg/kg measured after 7 days by hematoxylin and eosin staining based analysis. Type of series: organism-based. The settings on record: in vivo, 168 h, dose 100-200 mg/kg, time 7 day.
For series [23], the system named is Plasmodium berghei. Nature of the series: Antimalarial activity against Plasmodium berghei ANKA infected in female BALB/c mouse assessed as reduction in parasitemia at 50 to 100 mg/kg, ip administered daily for 7 days by Giemsa staining based light microscopy. Type of series: functional, organism-based. The settings on record: dose 50-100 mg/kg, time 7.0 day.

A short description of series [24]: Toxicity in mouse assessed as effect on water intake at 100 to 200 mg/kg measured for 7 days. Type of series: organism-based. Particulars: in vivo, 168 h, dose 100-200 mg/kg, time 7 day.

Broadly, the IC50 is the concentration at which inhibition is half-maximal. One may read the Kd as a measure of binding affinity in units of concentration. With `O=C(Cn1cc(CN2CCN(c3ccnc4cc(Cl)ccc34)CC2)nn1)Nc1cccc([N+](=O)[O-])c1`, the selectivity ratio in [1] came to 160. The IC50 in [2] is 0.97 µM; in series [3], 1.8 µM; in [6] it was 8.1 µM. The Kd in series [4] amounted to 14 µM. For the same compound, the K in series [5] was 0.305 s⁻¹. Also, the result in series [7], in series [9], in [11], in [12] and in series [23] was Active. Moreover, the Activity in series [8] stood at 1.03%; in series [14], 11.53 m; in series [15] it was 10.75 m; in series [16] it was 14.17 s; in series [19] it was 3.6; in series [20], 1.889. Also, the Activity entry in series [21], in series [22] and in [24] was “Non-Toxic” in each case. Besides, the “fractional inhibitory concentration index (FICI)” value in [10] stood at 0.5. Besides, the microsomal CLint at 2 µM in series [13] turned out to be 13.5 µL/min/mg. Also, the values for the Time in series [17] and in series [18] were 56.23 s and 54.39 s, respectively.
